Experiments:
[1] = target: T1, recombinant human c-Met/HGF receptor (Homo sapiens, UniProt P08581); test: In vitro receptor tyrosine kinase assay, c-Met (DELFIA); type: biochemical; conditions: ATP 10 uM, enzyme 25 nM; read-out: Potency in enzyme assays Cmet
T1 construct: His tag; made in house; host or cells: Hi-5 cells (Trichoplusia ni), recombinant baculovirus
Source text: (§1) These tests measure the ability of compounds to inhibit the enzymatic activity of recombinant human c-Met/HGF receptor and VEGF receptor enzymatic activity.
A 1.3-kb cDNA corresponding to the intracellular domain of c-Met or c-Met IC (Genbank accession number NP000236-1 amino acid […]) is cloned into the BamHI/XhoI sites of the pBlueBacHis2A vector (Invitrogen) for the production of a histidine-tagged version of that enzyme. This construct is used to generate recombinant baculovirus using the Bac-N-Blue™ system according to the manufacturer's instructions (Invitrogen).
(§2) The c-Met IC protein is expressed in Hi-5 cells (Trichoplusia Ni) upon infection with recombinant baculovirus construct. Briefly, Hi-5 cells grown in suspension and maintained in serum-free medium (Sf900 II supplemented with gentamycin) at a cell density of about 2×10^6 cells/ml are infected with the above-mentioned viruses at a multiplicity of infection (MOI) of 0.2 during 72 hours at 27° C. with agitation at 120 rpm on a rotary shaker. Infected cells are harvested by centrifugation at 398 g for 15 min. Cell pellets are frozen at −80° C. until purification is performed.
All steps described in cell extraction and purification are performed at 4° C. Frozen Hi-5 cell pellets infected with the C-Met IC recombinant baculovirus are thawed and gently resuspended in Buffer A (20 mM Tris pH 8.0, 10% glycerol, 1 μg/ml pepstatin, 2 μg/ml Aprotinin and leupeptin, 50 μg/ml PMSF, 50 μg/ml TLCK and 10 μM E64, 0.5 mM DTT and 1 mM Levamisole) using 3 ml of buffer per gram of cells. The suspension is Dounce homogenized after which it is centrifuged at 22500 g, 30 min., 4° C. The supernatant (cell extract) is used as starting material for purification of c-Met IC.
The supernatant is loaded onto a QsepharoseFF column (Amersham Biosciences) equilibrated with Buffer B (20 mM Tris pH 8.0, 10% glycerol) supplemented with 0.05M NaCl. Following a ten column volume (CV) wash with equilibration buffer, bound proteins are eluted with a 5 CV salt linear gradient spanning from 0.05 to 1M NaCl in Buffer B. Typically, the conductivity of selected fractions rank between 6.5 and 37 mS/cm. This Qsepharose eluate has an estimated NaCl concentration of 0.33M and is supplemented with a 5M NaCl solution in order to increase NaCl concentration at 0.5M and also with a 5M Imidazole (pH 8.0) solution to achieve a final imidazole concentration of 15 mM. This material is loaded onto a HisTrap affinity column (GE Healthcare) equilibrated with Buffer C (50 mM NaPO4 pH 8.0, 0.5M NaCl, 10% glycerol) supplemented with 15 mM imidazole. After a 10 CV wash with equilibration buffer and an 8 CV wash with buffer C+40 mM imidazole, bound proteins are eluted with an 8 CV linear gradient (15 to 500 mM) of imidazole in buffer C. C-Met IC enriched fractions from this chromatography step are pooled based on SDS-PAGE analysis. This pool of enzyme undergoes buffer exchange using PD-10 column (GE Healthcare) against buffer D (25 mM HEPES pH 7.5, 0.1M NaCl, 10% glycerol and 2 mM β-mercaptoethanol). Final C-Met IC protein preparations concentrations are about 0.5 mg/ml with purity approximating 80%. Purified c-Met IC protein stocks are supplemented with BSA at 1 mg/ml, aliquoted and frozen at −80° C. prior to use in enzymatic assay.
Inhibition of c-Met/HGF receptor and VEGFR/KDR is measured in a DELFIA™ assay (Perkin Elmer). The substrate poly(Glu4,Tyr) is immobilized onto black high-binding polystyrene 96-well plates. The coated plates are washed and stored at 4° C. During the assay, enzymes are pre-incubated with inhibitor and Mg-ATP on ice in polypropylene 96-well plates for 4 minutes, and then transferred to the coated plates. The subsequent kinase reaction takes place at 30° C. for 10-30 minutes. ATP concentrations in the assay are 10 uM for C-Met (5× the Km) and 0.6 uM for VEGFR/KDR (2× the Km). Enzyme concentration is 25 nM (C-Met) or 5 nM (VEGFR/KDR). […]

VEGF receptor KDR = target: T2, VEGF receptor KDR (Homo sapiens, UniProt P35968); test: In vitro receptor tyrosine kinase assay, VEGF receptor KDR (DELFIA); type: biochemical; conditions: ATP 0.6 uM, enzyme 5 nM; read-out: Potency in enzyme assays VEGF
T2 construct: made in house; host or cells: Sf9 cells (Spodoptera frugiperda), recombinant baculovirus
T2 sequence (P35968 806-1356): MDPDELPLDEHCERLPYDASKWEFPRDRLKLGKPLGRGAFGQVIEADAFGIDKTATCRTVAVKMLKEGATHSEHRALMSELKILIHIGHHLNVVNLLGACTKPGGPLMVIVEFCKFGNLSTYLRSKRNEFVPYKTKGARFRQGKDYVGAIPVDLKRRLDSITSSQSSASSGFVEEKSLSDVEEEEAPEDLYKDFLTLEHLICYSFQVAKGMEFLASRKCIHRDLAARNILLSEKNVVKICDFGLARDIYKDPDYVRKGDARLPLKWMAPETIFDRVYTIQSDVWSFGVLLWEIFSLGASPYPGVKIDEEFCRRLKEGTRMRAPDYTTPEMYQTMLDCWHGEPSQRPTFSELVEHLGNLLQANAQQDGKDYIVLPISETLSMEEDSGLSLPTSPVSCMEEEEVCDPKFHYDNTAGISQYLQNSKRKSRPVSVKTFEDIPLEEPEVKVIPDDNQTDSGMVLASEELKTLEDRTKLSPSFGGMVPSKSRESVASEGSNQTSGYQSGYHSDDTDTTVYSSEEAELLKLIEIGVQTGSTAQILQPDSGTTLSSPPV
Source text: as §1
In the case of VEGF receptor KDR a 1.6-kb cDNA corresponding to the catalytic domain of VEGFR2 or KDR (Genbank accession number AF035121 amino acid 806 to 1356) is cloned into the Pst I site of the pDEST20 Gateway vector (Invitrogen) for the production of a GST-tagged version of that enzyme. This construct is used to generate recombinant baculovirus using the Bac-to-Bac system according to the manufacturer's instructions (Invitrogen).
as §2, with “GST-VEGFR2806-1356” for “c-Met IC”, “Sf9” for “Hi-5”, “(Spodoptera frugiperda)” for “(Trichoplusia Ni)”, “0.1” for “0.2”
All steps described in cell extraction and purification are performed at 4° C. Frozen Sf9 cell pellets infected with the GST-VEGFR2806-1356 recombinant baculovirus re thawed and gently resuspended in Buffer A (PBS pH 7.3 supplemented with 1 μg/ml pepstatin, 2 μg/ml Aprotinin and leupeptin, 50 μg/ml PMSF, 50 μg/ml TLCK and 10 μM E64 and 0.5 mM DTT) using 3 ml of buffer per gram of cells. Suspension is Dounce homogenized and 1% Triton X-100 is added to the homogenate after which it is centrifuged at 22500 g, 30 min., 4° C. The supernatant (cell extract) is used as starting material for purification of GST-VEGFR2806-1356.
The supernatant is loaded onto a GST-agarose column (Sigma) equilibrated with PBS pH 7.3. Following a four column volume (CV) wash with PBS pH 7.3+1% Triton X-100 and 4 CV wash with buffer B (50 mM Tris pH 8.0, 20% glycerol and 100 mM NaCl), bound proteins are step eluted with 5 CV of buffer B supplemented with 5 mM DTT and 15 mM glutathion. GST-VEGFR2806-1356 enriched fractions from this chromatography step are pooled based on U.V. trace i.e. fractions with high O.D^-280- Final GST-VEGFR2806-1356 protein preparations concentrations are about 0.7 mg/ml with purity approximating 70%. Purified GST-VEGFR2806-1356 protein stocks are aliquoted and frozen at −80° C. prior to use in enzymatic assay.
Inhibition of c-Met/HGF receptor and VEGFR/KDR is measured in a DELFIA™ assay (Perkin Elmer). The substrate poly(Glu4,Tyr) is immobilized onto black high-binding polystyrene 96-well plates. The coated plates are washed and stored at 4° C. During the assay, enzymes are pre-incubated with inhibitor and Mg-ATP on ice in polypropylene 96-well plates for 4 minutes, and then transferred to the coated plates. The subsequent kinase reaction takes place at 30° C. for 10-30 minutes. ATP concentrations in the assay are 10 uM for C-Met (5× the Km) and 0.6 uM for VEGFR/KDR (2× the Km). Enzyme concentration is 25 nM (C-Met) or 5 nM (VEGFR/KDR). After incubation, the kinase reactions are quenched with EDTA and the plates are washed. Phosphorylated product is detected by incubation with Europium-labeled anti-phosphotyrosine MoAb. After washing the plates, bound MoAb is detected by time-resolved fluorescence in a Gemini SpectraMax reader (Molecular Devices). Compounds are evaluated over a range of concentrations and IC50's (concentration of compounds giving 50% inhibition of enzymatic activity) are determined.

A549 = A549 wound healing inhibition; conditions: Homo sapiens; A549 cells; read-out: Potency in cell-based assays A549 wound healing inhibition
DU145 = DU145 scattering inhibition; conditions: Homo sapiens, DU-145; DU145 cells; read-out: Potency in cell-based assays DU145 scattering inhibition

T1 sequence (P08581 1078-1337): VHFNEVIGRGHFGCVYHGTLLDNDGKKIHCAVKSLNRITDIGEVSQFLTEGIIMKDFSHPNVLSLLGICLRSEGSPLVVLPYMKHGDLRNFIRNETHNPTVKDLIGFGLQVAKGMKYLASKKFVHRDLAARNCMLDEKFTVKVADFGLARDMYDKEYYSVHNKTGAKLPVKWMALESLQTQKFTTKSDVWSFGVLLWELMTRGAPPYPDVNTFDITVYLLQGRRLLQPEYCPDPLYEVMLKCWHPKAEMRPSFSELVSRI

IC50 [1] [nM] | IC50 (VEGF receptor KDR) [nM] | IC50 (A549) [µM] | IC50 (DU145) [µM] | SMILES
≥ 1000 | ≥ 1000 | 1 to 5 | 5 to 10 | O=C(CC(Nc1ccc(F)cc1)C(F)(F)F)Nc1ccc(Oc2cc(NC(=O)N3CCCC3)ncn2)c(F)c1 (stereo not drawn) [Compound 9a, N-(6-(2-Fluoro-4-(4,4,4-trifluoro-3-(4-fluorophenylamino)butanamido)phenoxy)pyrimidin-4-yl)pyrrolidine-1-carboxamide]
≥ 1000 | ≥ 1000 | 5 to 10 | 5 to 10 | O=C(Nc1ccc(Oc2cc(NC(=O)N3CCCC3)ncn2)c(F)c1)C1CCN(c2ccccc2)C1=O (stereo not drawn) [Compound 9b, N-(6-(2-Fluoro-4-(2-oxo-1-phenylpyrrolidine-3-carboxamido)phenoxy)pyrimidin-4-yl)pyrrolidine-1-carboxamide]
< 250 | < 250 | 1 to 5 | 5 to 10 | O=C(Nc1cc(Oc2ccc(NC(=O)N3CCN(c4ccccc4)C3=O)cc2F)ncn1)N1CCCC1 [Compound 9c, N-(3-Fluoro-4-(6-(pyrrolidine-1-carboxamido)pyrimidin-4-yloxy)phenyl)-2-oxo-3-phenylimidazolidine-1-carboxamide]
≥ 1000 | < 250 | 5 to 10 | 5 to 10 | O=C(CC(Nc1ccc(Oc2cc(NC(=O)N3CCCC3)ncn2)c(F)c1)C(F)(F)F)Nc1ccccc1 (stereo not drawn) [Compound 13, N-(6-(2-Fluoro-4-(1,1,1-trifluoro-4-oxo-4-(phenylamino)butan-2-ylamino)phenoxy)pyrimidin-4-yl)pyrrolidine-1-carboxamide]
< 250 | 250 to 500 | ≥ 1 | ≥ 1 | O=C(Nc1cc(Oc2ccc(NC(=O)N3CCN(c4ccccc4)C3=O)cc2F)ccn1)N1CCCC1 [Compound 18a, N-(3-Fluoro-4-(2-(pyrrolidine-1-carboxamido)pyridin-4-yloxy)phenyl)-2-oxo-3-phenylimidazolidine-1-carboxamide]
< 250 | < 250 | ≥ 1 | ≥ 1 | O=C(Nc1cc(Oc2ccc(NC(=O)N3CCN(c4ccc(F)cc4)C3=O)cc2F)ccn1)N1CCCC1 [Compound 18b, N-(3-fluoro-4-(2-(pyrrolidine-1-carboxamido)pyridin-4-yloxy)phenyl)-3-(4-fluorophenyl)-2-oxoimidazolidine-1-carboxamide]
500 to 1000 | ≥ 1000 | 1 to 5 | ≥ 1 | CN(C)CCCNC(=O)Nc1cc(Oc2ccc(NC(=O)N3CCN(c4ccccc4)C3=O)cc2F)ccn1 [Compound 18c, N-(4-(2-(3-(3-(dimethylamino)propyl)ureido)pyridin-4-yloxy)-3-fluorophenyl)-2-oxo-3-phenylimidazolidine-1-carboxamide]
250 to 500 | ≥ 1000 | > 10 | > 10 | CN(C)CCOC(=O)Nc1cc(Oc2ccc(NC(=O)N3CCN(c4ccccc4)C3=O)cc2F)ccn1 [Compound 18d, 2-(dimethylamino)ethyl4-(2-fluoro-4-(2-oxo-3-phenylimidazolidine-1-carboxamido)phenoxy)pyridin-2-ylcarbamate]
< 250 | 250 to 500 | ≥ 1 | ≥ 1 | CN(C)[C@@H]1CCN(C(=O)Nc2cc(Oc3ccc(NC(=O)N4CCN(c5ccccc5)C4=O)cc3F)ccn2)C1 [Compound 18e, (R)-N-(4-(2-(3-(dimethylamino)pyrrolidine-1-carboxamido)pyridin-4-yloxy)-3-fluorophenyl)-2-oxo-3-phenylimidazolidine-1-carboxamide]
< 250 | < 250 | 1 to 5 | ≥ 1 | CN(C)[C@H]1CCN(C(=O)Nc2cc(Oc3ccc(NC(=O)N4CCN(c5ccccc5)C4=O)cc3F)ccn2)C1 [Compound 18f, (S)-N-(4-(2-(3-(dimethylamino)pyrrolidine-1-carboxamido)pyridin-4-yloxy)-3-fluorophenyl)-2-oxo-3-phenylimidazolidine-1-carboxamide]
≥ 1000 | > 1000 |  |  | O=C(NCCN1CCOCC1)c1cc(Oc2ccc(NC(=O)N3CCN(c4ccc(F)cc4)C3=O)cc2F)ccn1 [Compound 87d, 4-(2-fluoro-4-(3-(4-fluorophenyl)-2-oxoimidazolidine-1-carboxamido)phenoxy)-N-(2-morpholinoethyl)picolinamide]

— patent US20080255155A1, “KINASE INHIBITORS AND USES THEREOF” (priority 2006, published 2008)
